Data: patent publication US20250002475A1 (EPICS THERAPEUTICS, priority 2023, published 2025)

biological target: T1, recombinant METTL3/METTL14 complex (Homo sapiens, UniProt Q86U44); experiment: METTL3/14 Scintillation Proximity Assay (SPA), RNA methyltransferase activity; assay type: biochemical; conditions: 5.31 nM METTL3/14 complex, 250 nM RNA substrate, 1 μM 3H-SAM, 90 min; for compounds marked * best of the two separated forms
T1 construct: purchased Active Motif 311970; host or cells: Sf9 cells
T1 sequence (Q86U44 whole entry): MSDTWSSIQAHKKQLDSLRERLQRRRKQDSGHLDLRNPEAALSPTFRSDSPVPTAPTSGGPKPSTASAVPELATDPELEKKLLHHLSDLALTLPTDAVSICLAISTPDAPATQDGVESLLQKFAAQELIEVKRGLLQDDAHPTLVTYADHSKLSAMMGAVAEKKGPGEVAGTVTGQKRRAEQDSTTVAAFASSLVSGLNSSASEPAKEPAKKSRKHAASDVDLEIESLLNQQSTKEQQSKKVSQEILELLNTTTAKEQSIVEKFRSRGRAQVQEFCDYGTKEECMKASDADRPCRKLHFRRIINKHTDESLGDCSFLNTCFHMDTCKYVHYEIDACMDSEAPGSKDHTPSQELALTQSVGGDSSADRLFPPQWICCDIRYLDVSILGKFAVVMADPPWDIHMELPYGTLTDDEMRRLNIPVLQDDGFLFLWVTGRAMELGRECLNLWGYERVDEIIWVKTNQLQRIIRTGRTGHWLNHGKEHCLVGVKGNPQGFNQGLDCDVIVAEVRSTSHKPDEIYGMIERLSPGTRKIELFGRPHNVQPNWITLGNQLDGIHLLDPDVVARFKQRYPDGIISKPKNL
T1 sequence (Q9HCE5 whole entry partner): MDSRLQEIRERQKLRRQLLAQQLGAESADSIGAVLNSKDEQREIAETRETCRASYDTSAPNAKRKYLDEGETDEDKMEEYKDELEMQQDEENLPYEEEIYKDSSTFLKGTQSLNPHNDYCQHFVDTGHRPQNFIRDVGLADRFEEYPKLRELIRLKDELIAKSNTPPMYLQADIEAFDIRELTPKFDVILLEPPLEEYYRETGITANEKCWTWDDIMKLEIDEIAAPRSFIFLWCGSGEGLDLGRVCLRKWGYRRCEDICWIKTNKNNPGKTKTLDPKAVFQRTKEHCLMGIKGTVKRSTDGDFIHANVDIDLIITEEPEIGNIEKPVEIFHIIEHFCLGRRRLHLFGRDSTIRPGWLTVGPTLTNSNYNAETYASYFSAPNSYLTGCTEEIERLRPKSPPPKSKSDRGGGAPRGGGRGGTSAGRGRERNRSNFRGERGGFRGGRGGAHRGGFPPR

Row | IC50 [nM] | SMILES
1 | ≤ 50 | CC(n1cc(-c2cncc(Cl)c2)nn1)n1ccc(N2CCC[C@@H](NCC3CCC3)C2)cc1=O (mixture of isomers) [Compound 078, 1-(1-(4-(5-chloropyridin-3-yl)-1H-1,2,3-triazol-1-yl)ethyl)-4-((R)-3-((cyclobutylmethyl)amino)piperidin-1-yl)pyridin-2(1H)-one]
2 | ≤ 50 | Cc1cncc(-c2cn(C(C)n3ccc(N4CCC[C@@H](NCC5CCC5)C4)cc3=O)nn2)c1 (mixture of isomers) [Compound 080, 4-((R)-3-((cyclobutylmethyl)amino)piperidin-1-yl)-1-(1-(4-(5-methylpyridin-3-yl)-1H-1,2,3-triazol-1-yl)ethyl)pyridin-2(1H)-one]
3 | ≤ 50 | CNc1ccn2c(=O)cc(C(=O)NC(C)c3ccc(N4CCC[C@@H](NCC5CCC5)C4)nn3)nc2c1 (mixture of isomers) [Compound 091, N-(1-(6-((R)-3-((cyclobutylmethyl)amino)piperidin-1-yl)pyridazin-3-yl)ethyl)-8-(methylamino)-4-oxo-4H-pyrido[1,2-a]pyrimidine-2-carboxamide]
4 | ≤ 50 | COc1ccc(C(=O)NC(C)c2ccc(N3CCC[C@@H](NCC4CCC4)C3)nn2)c2cn[nH]c12 (mixture of isomers) [Compound 092, N-(1-(6-((R)-3-((cyclobutylmethyl)amino)piperidin-1-yl)pyridazin-3-yl)ethyl)-7-methoxy-1H-indazole-4-carboxamide]
5 | ≤ 50 | CNc1cncc(-c2cn(C(C)n3ccc(N4CCC[C@@H](NCC5CCC5)C4)cc3=O)nn2)c1 (mixture of isomers) [Compound 096, 4-((R)-3-((cyclobutylmethyl)amino)piperidin-1-yl)-1-(1-(4-(5-(methylamino)pyridin-3-yl)-1H-1,2,3-triazol-1-yl)ethyl)pyridin-2(1H)-one]
6 | ≤ 50 | CC(c1ccc(N2CCC[C@@H](NCC3CCC3)C2)cn1)n1cc(-c2cc(=O)n3ccccc3n2)nn1 (mixture of isomers) [Compound 099, 2-(1-(1-(5-((R)-3-((cyclobutylmethyl)amino)piperidin-1-yl)pyridin-2-yl)ethyl)-1H-1,2,3-triazol-4-yl)-4H-pyrido[1,2-a]pyrimidin-4-one]
7 | ≤ 50 | CCOc1cncc(-c2cn(C(C)n3ccc(N4CCC[C@@H](NCC5CCC5)C4)cc3=O)nn2)c1 (mixture of isomers) [Compound 103, 4-((R)-3-((cyclobutylmethyl)amino)piperidin-1-yl)-1-(1-(4-(5-ethoxypyridin-3-yl)-1H-1,2,3-triazol-1-yl)ethyl)pyridin-2(1H)-one]
8 | ≤ 50 | COc1cncc(-c2nnn(C(C)n3ccc(N4CCC[C@@H](NCC5CCC5)C4)cc3=O)n2)c1 (mixture of isomers) [Compound 106, 4-((R)-3-((cyclobutylmethyl)amino)piperidin-1-yl)-1-(1-(5-(5-methoxypyridin-3-yl)-2H-tetrazol-2-yl)ethyl)pyridin-2(1H)-one]
9 | 50 to 500 | CC(NC(=S)c1cc(=O)n2ccccc2n1)c1ccc(N2CCC[C@@H](NCC3CCC3)C2)nn1 (mixture of isomers) [Compound 111, N-(1-(6-((R)-3-((cyclobutylmethyl)amino)piperidin-1-yl)pyridazin-3-yl)ethyl)-4-oxo-4H-pyrido[1,2-a]pyrimidine-2-carbothioamide]
10 | ≤ 50 | CC(NC(=O)c1cc(=O)n2ccccc2n1)c1ccc(N2CCC[C@@H](NCC3CC3)C2)cn1 (mixture of isomers) [Compound 112, N-(1-(5-((R)-3-((cyclopropylmethyl)amino)piperidin-1-Yl)pyridin-2-yl)ethyl) -4-oxo-4H-pyrido[1,2-a]pyrimidine-2-carboxamide]
11 | ≤ 50 | COc1cncc(-n2cc(C(C)n3ccc(N4CCC[C@@H](NCC5CCC5)C4)cc3=O)cn2)c1 (mixture of isomers) [Compound 120, 4-((R)-3-((cyclobutylmethyl)amino)piperidin-1-yl)-1-(1-(1-(5-methoxypyridin-3-yl)-1H-pyrazol-4-yl)ethyl)pyridin-2(1H)-one]
12 | ≤ 50 | CNc1cnnc(-c2cn(C(C)n3ccc(N4CCC[C@@H](NCC5CCC5)C4)cc3=O)nn2)c1 (mixture of isomers) [Compound 122, 4-((R)-3-((cyclobutylmethyl)amino)piperidin-1-yl)-1-(1-(4-(5-(methylamino)pyridazin-3-yl)-1H-1,2,3-triazol-1-yl)ethyl)pyridin-2(1H)-one]
13 | ≤ 50 | CC(n1cc(-c2cncc(N3CCOCC3)c2)nn1)n1ccc(N2CCC[C@@H](NCC3CCC3)C2)cc1=O (mixture of isomers) [Compound 129, 4-((R)-3-((cyclobutylmethyl)amino)piperidin-1-yl)-1-(1-(4-(5-morpholinopyridin-3-yl)-1H-1,2,3-triazol-1-yl)ethyl)pyridin-2(1H)-one]
14 | ≤ 50 | COc1cncc(-c2cc(C(C)n3ccc(N4CCC[C@@H](NCC5CCC5)C4)cc3=O)on2)c1 (mixture of isomers) [Compound 130, 4-((R)-3-((cyclobutylmethyl)amino)piperidin-1-yl)-1-(1-(3-(5-methoxypyridin-3-yl)isoxazol-5-yl)ethyl)pyridin-2(1H)-one]
15 | ≤ 50 | COc1cncc(-n2cc(C(C)n3ccc(N4CCC[C@@H](NCC5CCC5)C4)cc3=O)nn2)c1 (mixture of isomers) [Compound 132, 4-((R)-3-((cyclobutylmethyl)amino)piperidin-1-yl)-1-(1-(1-(5-methoxypyridin-3-yl)-1H-1,2,3-triazol-4-yl)ethyl)pyridin-2(1H)-one]
16 | ≤ 50 | CC(c1ccc(N2CCC[C@@H](NCC3CCC3)C2)nn1)n1cc(-c2cncc(N(C)C)c2)nn1 (mixture of isomers) [Compound 133, 5-(1-(1-(6-((R)-3-((cyclobutylmethyl)amino)piperidin-1-yl)pyridazin-3-yl)ethyl)-1H-1,2,3-triazol-4-yl)-N,N-dimethylpyridin-3-amine]
17 | ≤ 50 | CC(n1cc(-c2cncc(-n3cccn3)c2)nn1)n1ccc(N2CCC[C@@H](NCC3CCC3)C2)cc1=O (mixture of isomers) [Compound 146, 1-(1-(4-(5-(1H-pyrazol-1-yl)pyridin-3-yl)-1H-1,2,3-triazol-1-yl)ethyl)-4-((R)-3-((cyclobutylmethyl)amino)piperidin-1-yl)pyridin-2(1H)-one]
18 | 50 to 500 | CC(C(=O)Nc1cncc(N(C)C)c1)n1ccc(N2CCC[C@@H](NCC3CCC3)C2)cc1=O (mixture of isomers) [Compound 162, 2-(4-((R)-3-((cyclobutylmethyl)amino)piperidin-1-yl)-2-oxopyridin-1(2H)-yl)-N-(5-(dimethylamino)pyridin-3-yl)propanamide]
19 | 50 to 500 | CC1CCCN1c1cncc(-c2cn(C(C)n3ccc(N4CCC[C@@H](NCC5CCC5)C4)cc3=O)nn2)c1 (mixture of isomers) [Compound 172]

Row | IC50 [nM] | SMILES
20 | ≤ 50 | COc1cncc(-c2cc(C(C)n3ccc(N4CCC[C@@H](NCC5CCC5)C4)cc3=O)sn2)c1 (mixture of isomers) [Compound 204, 4-((R)-3-((cyclobutylmethyl)amino)piperidin-1-yl)-1-(1-(3-(5-methoxypyridin-3-yl)isothiazol-5-yl)ethyl)pyridin-2(1H)-one]
21 | ≤ 50 | CC(c1cnn(-c2cc(N(C)C)cnn2)c1)n1ccc(N2CCC[C@@H](NCC3CC3)C2)cc1=O (mixture of isomers) [Compound 224, 4-((R)-3-((cyclopropylmethyl)amino)piperidin-1-yl)-1-(1-(1-(5-(dimethylamino)pyridazin-3-yl)-1H-pyrazol-4-yl)ethyl)pyridin-2(1H)-one]
22 | ≤ 50 | COc1cc(-c2cn(Cc3ccc(N4CCC[C@@H](NC5CCOC5)C4)nn3)nn2)c2cn[nH]c2c1 (single isomer, unassigned) [Compound 033]
23 | ≤ 50 | COc1cc(-c2cn(Cc3ccc(N4CCC[C@@H](NC(C)C5CC5)C4)nn3)nn2)c2cn[nH]c2c1 (single isomer, unassigned) [Compound 045]
24 | ≤ 50 | COc1cncc(-c2cn(C(c3ccc(N4CCC[C@@H](NCC5CCC5)C4)nn3)C(F)(F)F)nn2)c1 (single isomer, unassigned) [Compound 064]
25 | ≤ 50 | COc1cncc(-c2cn(C(c3ccc(N4CCC[C@@H](NCC5CCC5)C4)nn3)C3CC3)nn2)c1 (single isomer, unassigned) [Compound 084]
26 | ≤ 50 | COc1cncc(-c2cn(C(C)n3ccc(N4CCC[C@@H](NCC5CCC5)C4)cc3=O)nn2)n1 (single isomer, unassigned) [Compound 105]
27 | ≤ 50 | COc1cnc(C#N)c(-c2cn(C(C)n3ccc(N4CCC[C@@H](NCC5CCC5)C4)cc3=O)nn2)c1 (single isomer, unassigned) [Compound 109]
28 | ≤ 50 | CC(NC(=O)c1cc(=S)n2ccccc2n1)c1ccc(N2CCC[C@@H](NCC3CCC3)C2)nn1 (single isomer, unassigned) [Compound 110]
29 | 50 to 500 | CC(NC(=O)c1cc(=O)n2ccccc2n1)c1ccc(N2CCC[C@@H](NC3CCCC3)C2)cn1 (single isomer, unassigned) [Compound 117]
30 | 50 to 500 | COc1cnnc(-c2cn(C(C)c3ccc(N4CCC[C@@H](NCC5CCC5)C4)nn3)nn2)c1 (single isomer, unassigned) [Compound 137]
31 | ≤ 50 | CC(n1cc(-c2cncc(Br)c2)nn1)n1ccc(N2CCC[C@@H](NCC3CCC3)C2)cc1=O (single isomer, unassigned) [Compound 152]
32 | ≤ 50 | COc1cncc(-c2ncc(C(C)(O)c3ccc(N4CCC[C@@H](NCC5CCC5)C4)cn3)s2)c1 (single isomer, unassigned) [Compound 165]
33 | ≤ 50 | COc1cc(-c2ncc(C(C)c3ccc(N4CCC[C@@H](NCC5CCC5)C4)cn3)s2)c2cn[nH]c2c1 (single isomer, unassigned) [Compound 167]
34 | ≤ 50 | CC(n1cnc(-c2cc(=O)n3ccccc3n2)c1)n1ccc(N2CCC[C@@H](NCC3CCC3)C2)cc1=O (single isomer, unassigned) [Compound 170]
35 | ≤ 50 | COc1cncc(-c2nnn(C(C)c3ccc(N4CCC[C@@H](NCC5CCC5)C4)nn3)n2)c1 (single isomer, unassigned) [Compound 190]
36 | ≤ 50 | CC(n1cc(-c2cncc(N(C)C(F)(F)F)c2)nn1)n1ccc(N2CCC[C@@H](NCC3CC3)C2)cc1=O (single isomer, unassigned) [Compound 236]
37 | 50 to 500 | Cc1cncc(-c2cn(C(C)n3ccc(N4CCC[C@@H](NCC5CC5)C4)cc3=O)nn2)n1 (single isomer, unassigned) [Compound 255]
